Laboratory results as given in ChEMBL document CHEMBL3414499, “Characterization of two distinct structural classes of selective aldehyde dehydrogenase 1A1 inhibitors” (J Med Chem, 2015).
Active and inactive are the calls of the source.

Tests used:
[1] = target: T1, Delta-1-pyrroline-5-carboxylate dehydrogenase, mitochondrial (Homo sapiens) (UniProt P30038); experiment: Effect on human ALDH4A1 at 20 uM preincubated for 2 mins with NAD+ followed by aldehyde substrate addition
T1 sequence (whole entry): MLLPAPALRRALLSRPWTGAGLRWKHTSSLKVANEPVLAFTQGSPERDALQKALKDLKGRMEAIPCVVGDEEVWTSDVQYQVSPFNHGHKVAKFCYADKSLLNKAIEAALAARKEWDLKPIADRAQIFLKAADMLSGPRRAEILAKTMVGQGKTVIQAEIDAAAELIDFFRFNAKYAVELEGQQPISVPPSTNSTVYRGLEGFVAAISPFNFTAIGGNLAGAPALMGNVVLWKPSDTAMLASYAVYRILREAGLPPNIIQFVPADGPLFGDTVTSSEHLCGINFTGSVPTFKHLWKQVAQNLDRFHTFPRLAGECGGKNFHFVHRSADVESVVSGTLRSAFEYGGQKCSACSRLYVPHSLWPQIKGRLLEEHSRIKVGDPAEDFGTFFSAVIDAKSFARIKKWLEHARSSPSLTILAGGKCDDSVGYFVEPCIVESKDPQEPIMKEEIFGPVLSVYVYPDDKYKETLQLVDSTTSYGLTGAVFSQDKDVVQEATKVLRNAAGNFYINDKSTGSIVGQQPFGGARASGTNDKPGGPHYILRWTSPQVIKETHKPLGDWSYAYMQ

[2] = target: T2, Aldehyde dehydrogenase X, mitochondrial (Homo sapiens) (UniProt P30837); experiment: Effect on recombinant human ALDH1B1 using propionaldehyde as substrate at 20 uM preincubated for 2 mins with NAD+ followed by substrate addition by UV-Vis spectrophotometric analysis
T2 sequence (whole entry): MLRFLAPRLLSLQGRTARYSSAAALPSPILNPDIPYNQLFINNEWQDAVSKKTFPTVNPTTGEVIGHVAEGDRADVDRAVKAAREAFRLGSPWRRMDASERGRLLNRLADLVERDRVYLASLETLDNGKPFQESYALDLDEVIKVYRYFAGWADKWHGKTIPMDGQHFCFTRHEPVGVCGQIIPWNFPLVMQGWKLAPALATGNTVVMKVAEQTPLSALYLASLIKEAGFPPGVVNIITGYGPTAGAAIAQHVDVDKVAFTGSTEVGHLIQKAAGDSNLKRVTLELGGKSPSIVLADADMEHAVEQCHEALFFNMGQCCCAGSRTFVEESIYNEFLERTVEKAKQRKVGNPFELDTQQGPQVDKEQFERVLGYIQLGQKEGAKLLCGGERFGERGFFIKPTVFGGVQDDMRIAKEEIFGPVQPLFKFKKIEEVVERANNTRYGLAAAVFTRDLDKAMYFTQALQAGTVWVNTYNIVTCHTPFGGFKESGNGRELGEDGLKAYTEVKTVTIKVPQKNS

[3] = target: T3, Cytosolic 10-formyltetrahydrofolate dehydrogenase (Rattus norvegicus) (UniProt P28037); experiment: Effect on rat carboxy terminal ALDH domain of ALDH1L1 at 20 uM preincubated for 2 mins with NAD+ followed by aldehyde substrate addition
T3 sequence (whole entry): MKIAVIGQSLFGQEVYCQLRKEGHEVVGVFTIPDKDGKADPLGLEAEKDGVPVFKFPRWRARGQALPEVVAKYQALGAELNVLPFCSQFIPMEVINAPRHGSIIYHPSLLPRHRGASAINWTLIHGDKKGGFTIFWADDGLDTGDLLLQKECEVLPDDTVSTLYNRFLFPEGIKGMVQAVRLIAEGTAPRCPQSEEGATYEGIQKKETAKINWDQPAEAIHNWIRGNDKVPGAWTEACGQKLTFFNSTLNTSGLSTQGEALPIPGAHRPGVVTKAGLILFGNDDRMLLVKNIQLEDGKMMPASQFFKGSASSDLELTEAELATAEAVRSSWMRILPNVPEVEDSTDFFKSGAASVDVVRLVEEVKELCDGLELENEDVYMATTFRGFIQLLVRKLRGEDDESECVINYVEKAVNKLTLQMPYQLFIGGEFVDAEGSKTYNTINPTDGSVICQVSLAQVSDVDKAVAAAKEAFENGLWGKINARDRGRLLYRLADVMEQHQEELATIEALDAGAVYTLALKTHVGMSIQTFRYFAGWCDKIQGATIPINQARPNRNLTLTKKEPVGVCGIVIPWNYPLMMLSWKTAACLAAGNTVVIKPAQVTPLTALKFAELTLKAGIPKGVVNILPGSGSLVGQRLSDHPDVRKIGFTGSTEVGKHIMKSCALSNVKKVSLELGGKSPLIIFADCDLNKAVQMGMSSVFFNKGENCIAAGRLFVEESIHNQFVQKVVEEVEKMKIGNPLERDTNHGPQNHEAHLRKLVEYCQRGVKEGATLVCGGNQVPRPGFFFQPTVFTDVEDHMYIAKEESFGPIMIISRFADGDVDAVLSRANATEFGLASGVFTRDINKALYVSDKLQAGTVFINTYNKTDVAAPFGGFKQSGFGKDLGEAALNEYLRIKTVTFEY

[4] = target: T4, Aldehyde dehydrogenase, dimeric NADP-preferring (Homo sapiens) (UniProt P30838); experiment: Effect on recombinant human ALDH3A1 using benzaldehyde as substrate at 20 uM preincubated for 2 mins with NAD+ followed by substrate addition by UV-Vis spectrophotometric analysis
T4 sequence (whole entry): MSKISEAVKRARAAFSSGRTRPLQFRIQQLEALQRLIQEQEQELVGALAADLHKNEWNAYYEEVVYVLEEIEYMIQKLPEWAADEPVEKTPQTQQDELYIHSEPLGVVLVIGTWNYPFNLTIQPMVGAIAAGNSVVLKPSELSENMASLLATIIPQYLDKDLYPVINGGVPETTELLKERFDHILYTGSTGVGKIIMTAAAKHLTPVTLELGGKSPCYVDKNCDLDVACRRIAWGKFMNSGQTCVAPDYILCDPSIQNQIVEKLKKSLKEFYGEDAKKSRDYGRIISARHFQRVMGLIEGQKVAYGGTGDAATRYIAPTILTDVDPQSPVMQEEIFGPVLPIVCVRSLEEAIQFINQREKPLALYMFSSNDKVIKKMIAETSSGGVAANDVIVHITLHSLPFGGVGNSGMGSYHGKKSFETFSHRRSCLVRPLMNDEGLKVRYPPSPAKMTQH

Measured: Activity

CC(C)CCn1c(CN2CCN(C(=O)c3ccco3)CC2)nc2c1c(=O)n(C)c(=O)n2C
inactive: all assays above
